{"source": "the supplement of paper PMC9663587", "assay_in_all_cases": "increase in dead-cell fraction, 72 h; higher = more death;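 also: breast cancer cell lines in 384-well plates, stained with Hoechst plus LIVE/DEAD far red dye and imaged, cells above an LDR intensity threshold counted dead, Hoechst-negative corpses included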", "key": {"[1]": {"compound": "CCN1CCN(Cc2ccc(Nc3ncc(F)c(-c4cc(F)c5nc(C)n(C(C)C)c5c4)n3)nc2)CC1"}, "Neratinib/HKI272": {"compound": "CCOc1cc2ncc(C#N)c(Nc3ccc(OCc4ccccn4)c(Cl)c3)c2cc1NC(=O)/C=C/CN(C)C [Neratinib/HKI272]"}, "[2]": {"compound": "CC(=O)c1c(C)c2cnc(Nc3ccc(N4CCNCC4)cn3)nc2n(C2CCCC2)c1=O"}, "LEE011/Ribociclib": {"compound": "CN(C)C(=O)c1cc2cnc(Nc3ccc(N4CCNCC4)cn3)nc2n1C1CCCC1 [LEE011/Ribociclib]"}, "Flavopiridol": {"compound": "CN1CC[C@H](c2c(O)cc(O)c3c(=O)cc(-c4ccccc4Cl)oc23)[C@H](O)C1 [Flavopiridol]"}, "[3]": {"compound": "CCc1cnn2c(NCc3ccc[n+]([O-])c3)cc(N3CCCC[C@H]3CCO)nc12"}}, "data": [{"cell line": "HTERT_HME1", "values": [{"measurement": "increase in dead-cell fraction", "setting": "[1]; 0.001 µM", "result": 0.0004}, {"measurement": "increase in dead-cell fraction", "setting": "[1]; 0.003162 µM", "result": -0.0056}, {"measurement": "increase in dead-cell fraction", "setting": "[1]; 0.01 µM", "result": -0.0023}, {"measurement": "increase in dead-cell fraction", "setting": "[1]; 0.03162 µM", "result": 0.002}, {"measurement": "increase in dead-cell fraction", "setting": "[1]; 0.1 µM", "result": 0.0067}, {"measurement": "increase in dead-cell fraction", "setting": "[1]; 0.3162 µM", "result": 0.0112}, {"measurement": "increase in dead-cell fraction", "setting": "[1]; 1 µM", "result": 0.0329}, {"measurement": "increase in dead-cell fraction", "setting": "[1]; 3.162 µM", "result": 0.0399}, {"measurement": "increase in dead-cell fraction", "setting": "[1]; 10 µM", "result": 0.111}, {"measurement": "increase in dead-cell fraction", "setting": "Neratinib/HKI272; 0.0003162 µM", "result": -0.0015}, {"measurement": "increase in dead-cell fraction", "setting": "Neratinib/HKI272; 0.001 µM", "result": 0.0018}, {"measurement": "increase in dead-cell fraction", "setting": "Neratinib/HKI272; 0.003162 µM", "result": 0.0002}, {"measurement": "increase in dead-cell fraction", "setting": "Neratinib/HKI272; 0.01 µM", "result": -0.0031}, {"measurement": "increase in dead-cell fraction", "setting": "Neratinib/HKI272; 0.03162 µM", "result": -0.0026}, {"measurement": "increase in dead-cell fraction", "setting": "Neratinib/HKI272; 0.1 µM", "result": 0.0016}, {"measurement": "increase in dead-cell fraction", "setting": "Neratinib/HKI272; 0.3162 µM", "result": 0.0161}, {"measurement": "increase in dead-cell fraction", "setting": "Neratinib/HKI272; 1 µM", "result": 0.0278}, {"measurement": "increase in dead-cell fraction", "setting": "Neratinib/HKI272; 3.162 µM", "result": 0.106}, {"measurement": "increase in dead-cell fraction", "setting": "[2]; 0.0003162 µM", "result": -0.0026}, {"measurement": "increase in dead-cell fraction", "setting": "[2]; 0.001 µM", "result": 0.0007}, {"measurement": "increase in dead-cell fraction", "setting": "[2]; 0.003162 µM", "result": -0.0013}, {"measurement": "increase in dead-cell fraction", "setting": "[2]; 0.01 µM", "result": -0.0019}, {"measurement": "increase in dead-cell fraction", "setting": "[2]; 0.03162 µM", "result": 0.0014}, {"measurement": "increase in dead-cell fraction", "setting": "[2]; 0.1 µM", "result": 0.0147}, {"measurement": "increase in dead-cell fraction", "setting": "[2]; 0.3162 µM", "result": 0.0168}, {"measurement": "increase in dead-cell fraction", "setting": "[2]; 1 µM", "result": 0.0267}, {"measurement": "increase in dead-cell fraction", "setting": "[2]; 3.162 µM", "result": 0.0446}, {"measurement": "increase in dead-cell fraction", "setting": "LEE011/Ribociclib; 0.001 µM", "result": 0.0038}, {"measurement": "increase in dead-cell fraction", "setting": "LEE011/Ribociclib; 0.003162 µM", "result": 0.0127}, {"measurement": "increase in dead-cell fraction", "setting": "LEE011/Ribociclib; 0.01 µM", "result": 0.0406}, {"measurement": "increase in dead-cell fraction", "setting": "LEE011/Ribociclib; 0.03162 µM", "result": 0.0372}, {"measurement": "increase in dead-cell fraction", "setting": "LEE011/Ribociclib; 0.1 µM", "result": 0.0514}, {"measurement": "increase in dead-cell fraction", "setting": "LEE011/Ribociclib; 0.3162 µM", "result": 0.0715}, {"measurement": "increase in dead-cell fraction", "setting": "LEE011/Ribociclib; 1 µM", "result": 0.0391}, {"measurement": "increase in dead-cell fraction", "setting": "LEE011/Ribociclib; 3.162 µM", "result": 0.0932}, {"measurement": "increase in dead-cell fraction", "setting": "LEE011/Ribociclib; 10 µM", "result": 0.132}, {"measurement": "increase in dead-cell fraction", "setting": "Flavopiridol; 0.0001 µM", "result": -0.0184}, {"measurement": "increase in dead-cell fraction", "setting": "Flavopiridol; 0.0003162 µM", "result": -0.0042}, {"measurement": "increase in dead-cell fraction", "setting": "Flavopiridol; 0.001 µM", "result": 0.0033}, {"measurement": "increase in dead-cell fraction", "setting": "Flavopiridol; 0.003162 µM", "result": 0.0052}, {"measurement": "increase in dead-cell fraction", "setting": "Flavopiridol; 0.01 µM", "result": 0.0001}, {"measurement": "increase in dead-cell fraction", "setting": "Flavopiridol; 0.03162 µM", "result": 0.007}, {"measurement": "increase in dead-cell fraction", "setting": "Flavopiridol; 0.1 µM", "result": 0.051}, {"measurement": "increase in dead-cell fraction", "setting": "Flavopiridol; 0.3162 µM", "result": 0.183}, {"measurement": "increase in dead-cell fraction", "setting": "Flavopiridol; 1 µM", "result": 0.577}, {"measurement": "increase in dead-cell fraction", "setting": "[3]; 0.0001 µM", "result": -0.0004}, {"measurement": "increase in dead-cell fraction", "setting": "[3]; 0.0003162 µM", "result": -0.0019}, {"measurement": "increase in dead-cell fraction", "setting": "[3]; 0.001 µM", "result": 0.0008}, {"measurement": "increase in dead-cell fraction", "setting": "[3]; 0.003162 µM", "result": 0.0059}, {"measurement": "increase in dead-cell fraction", "setting": "[3]; 0.01 µM", "result": 0.0263}, {"measurement": "increase in dead-cell fraction", "setting": "[3]; 0.03162 µM", "result": 0.571}, {"measurement": "increase in dead-cell fraction", "setting": "[3]; 0.1 µM", "result": 0.558}, {"measurement": "increase in dead-cell fraction", "setting": "[3]; 0.3162 µM", "result": 0.535}, {"measurement": "increase in dead-cell fraction", "setting": "[3]; 1 µM", "result": 0.511}]}]}
